Reference: US20160361255A1, “Peptide Nanotubes for Slow Release of Drugs at Peripheral Nerve Injury” (The University of Toledo, priority 2015, published 2016)

Experiments:
phosphorylated CREB [1] = test: Nuclear phospho-CREB immunostaining in cortical neurons; format: cell-based, mouse; conditions: 1 μM, 24 h
Protocol: (§1) Differentiated PC12 cells and mouse embryonic cortical neurons (E17, DIV14) were treated with mock, dextran, alginate, HA-GAGR or midi-GAGR (1 μM) for 24 h and fixed in 3.7% paraformaldehyde. The fixed cells and neurons were immunostained with antibodies against α-tubulin and phospho-CREB (p-CREB) along with DAPI (nucleus).

[2] = system: differentiated dopaminergic PC12 cells; test: LIVE/DEAD viability of differentiated PC12 cells exposed to 6-OHDA; format: cell-based; conditions: 1 μM for 6 h, then 30 μM 6-OHDA for 24 h
Protocol: Differentiated dopaminergic PC12 cells and primary mouse embryonic cortical neurons (E17, DIV14) were treated with mock (H2O) or 1 μM of dextran, alginate, HA-GAGR or midi-GAGR for 6 h and insulated by oxidative stressors (30 μM 6-OHDA [PC12] and 10 μM amyloid β peptide [cortical neurons]) for 24 h. The viability of neurons was assessed using LIVE/DEAD Viability/Cytotoxicity Assay Kit (Invitrogen).

phosphorylated CREB [3] = test: Nuclear phospho-CREB immunostaining in PC12 cells; format: cell-based; conditions: 1 μM, 24 h
Protocol: as §1

[4] = system: rat embryonic cortical neurons; test: Scholl ring analysis of cortical neurons exposed to 4-HNE; format: cell-based; conditions: pretreatment 2 days, then 25 μM 4-HNE 1 day
Protocol: Rat embryonic cortical neurons were treated with mock (FIG. 11C), 1 μM HA-GAGR (high acyl gellan gum), 1 μM dextran, 100 μM ascorbate or 1 μM midi-GAGR (FIG. 11D) for 2 days and then with 25 μM 4-hydroxynonenal (4-HNE), a lipid peroxide, for 1 day. After fixation, neurons were immunostained with anti-synaptophysin antibody (green) and rhodamine-phalloidin (actin: red). Scholl ring analysis was performed. Neurons pre-treated with mock, dextran or ascorbate lost neuritis (neuritic atrophy) in the presence of 4-HNE.

[5] = cited from earlier work
[6] = even at high doses (~200 mg/kg); cited from earlier work
[7] = ABTS Antioxidant Assay Kit; format: biochemical; conditions: 10 μM
Protocol: The antioxidant capacity of midi-GAGR was measured using ABTS Antioxidant Assay Kit (Zenbio Co.). […] This was slightly stronger than antioxidant capacity of LA-GAGR (10 μM LA-GAGR=15.4 μM Trolox) (Table 2)

Row | Substance | increase of nuclear p-CREB levels (phosphorylated CREB [1]) | 6-OHDA-induced cell death [2] | increase of nuclear p-CREB levels (phosphorylated CREB [3]) | neurites (neuritic atrophy) in the presence of 4-HNE [4] | oral bioavailability [5] | side effects in humans [6] | antioxidant capacity [7] [μM Trolox]
1 | alginate | not significantly increased | did not | not significantly increased |  |  |  | 
2 | dextran | not significantly increased | did not | not significantly increased | lost neuritis |  |  | 
3 | high acyl gellan gum [HA-GAGR] | not significantly increased |  | not significantly increased | formed neuritis, but less branched |  |  | 
4 | low acyl gellan gum [LA-GAGR] |  |  |  |  | good | few side effects | 15.4
